Reference: patent publication US20060135568A1, “Methods of treating microbial infections in humans and animals” (priority 2002, published 2006)
In brackets after ≈: the same amount, converted by molar mass. Entries after “also recorded” stand apart in the source; their conditions may differ. Where two headings read alike, the source gives them in different places.

Columns and labels:
[1] = tested on: ATP level in BCG cultures; format: cell-based, M. bovis BCG; conditions: for ATP[M] levels, single time-point and time-course experiments: all time-points tested
M. tuberculosis H37Rv = assay: BACTEC radiometric growth procedure, activity in the presence of ethanol; format: cell-based, Mycobacterium tuberculosis (H37Rv); conditions: for potentiation of growth inhibition by ethanol: 0.05% ethanol, M. tuberculosis; for MIC: Mycobacterium tuberculosis, H37RV, M. tuberculosis H37Rv, BACTEC
[2] = cited from earlier work
[3] = tested on: atpF (Rv1306) and hsp (Rv0251c); format: cell-based, M. bovis BCG; conditions: BCG treated overnight
M. smegmatis = conditions: concentrations up to 100 μg/ml; previously reported; cited from earlier work
[4] = tested on: mycolic acid synthesis in BCG; conditions: previously reported; cited from earlier work
[5] = tested on: mycolic acid synthesis in BCG; format: cell-based, M. bovis BCG; conditions: BCG early log phase, 100 μg/ml, 10 minutes post exposure
BCG = assay: MIC in BCG; format: cell-based, M. bovis BCG; conditions: Mycobacterium tuberculosis variant bovis BCG
[6] = tested on: b-subunit and hsp homologs; assay: 2-dimensional protein profiles of OSA-treated M. smegmatis; format: cell-based
Protocol: Protein assays: mycobacteria and cultures. Either DMSO (diluent), OSA. (6.25 and 100 μg/ml), cerulenin (24 μg/ml) or isoniazid (1.0 μg/ml) were added to 20 ml control and treated cultures, respectively. Following additional incubation for 24 hours under the same conditions, 2 ml aliquots of cells were harvested by centrifugation (13,000× g for 30 seconds), the supernatant removed, and the process repeated once using 1×PBS. The cellular contents of each tube were divided into 2 to 3 Eppendorfs (roughly 3 to 5 OD units per tube), and 250 μl of a lysis solution containing 3M urea (Sigma), 0.5% Triton X-100 (Sigma), […] dithiothreitol (DTT) (Gibco BRL, Life Technologies, Gaithersburg, Md.) and […] Pharmalyte (Pharmacia Biotech, Piscataway, N.J.) was added. Subsequently, phenylmethylsulfonyl fluoride (PMSF) (Sigma) (100 μg/ml) and leupeptin (2 μg/ml) (Sigma) were also added. Mixtures containing cells and lysis solution were beadbeaten at maximum speed for 60 seconds in a Biospec Mini-8 beadbeater using 200-300 μm glass beads (Sigma). This process was repeated twice per sample with 30-second intervals on ice between agitations. […] Protein concentration was determined using a standardized colorimetric assay (Coomassie Plus, Pierce, Rockford, Ill.) and BSA standards (Pierce) in a Shimadzu UC-1201 spectrophotometer. Quantitated samples were aliquoted and frozen at −70° C. […]

[7] = 5 minutes post-exposure, 16× MIC or stated inhibitor concentration

Q: Which “effect on ATP level versus untreated BCG” value [1, 7] does the source give for C/C=C/C/C=C/CCC(=O)[C@H]1O[C@H]1C(N)=O [cerulenin] here?
A: The value was “No appreciable decrease”.

Q: For C=C(C)[C@H]1Cc2c(ccc3c2O[C@@H]2COc4cc(OC)c(OC)cc4[C@@H]2C3=O)O1 [rotenone], which “effect on ATP level versus untreated BCG” value [1] is on record?
A: Its value is “No appreciable decrease”.

Q: With CC[C@@H](CO)NCCN[C@@H](CC)CO [EMB, ethambutol] as the compound, how does the “effect on ATP level versus untreated BCG” value [1, 7] read?
A: The value was “no appreciable difference”.

Q: With NNC(=O)c1ccncc1 [INH, isoniazid] as the compound, how does the “effect on ATP level versus untreated BCG” value [1, 7] read?
A: The value was “no appreciable difference”.

Q: For O=c1oc2ccccc2c(O)c1Cc1c(O)c2ccccc2oc1=O [dicumarol], which “effect on ATP level versus untreated BCG” value [1, 7] is on record?
A: The value was “No appreciable decrease”.

Q: Which results are given for CCCCCCCCS(=O)(=O)CC(N)=O [OSA, n-octanesulfonylacetamide]?
A: potentiation of growth inhibition by ethanol (M. tuberculosis H37Rv): potentiated; MIC (M. tuberculosis H37Rv; with 0.05% ethanol): < 1.5 µg/mL; MIC (M. tuberculosis H37Rv; without ethanol, read-out: MIC): 6.25 µg/mL; limit of solubility [2]: 100 µg/mL; effect on ATP level versus untreated BCG [1, 7]: significantly decreased; reduction in ATP[M] versus untreated controls ([1]; BCG, 100 μg/ml, 24 hours): 85%; decrease in ATP[M] level versus untreated controls ([1]; BCG, 100 μg/ml, one hour post exposure): 46%; reduction in ATP[M] versus untreated controls ([1]; BCG, 100 μg/ml, three hours): 54%; ATP[M] levels, single time-point and time-course experiments ([1]; BCG): decreased significantly; level of hsp expression by RT-PCR [3]: marked increase; susceptibility of M. smegmatis (M. smegmatis): intrinsically resistant; mycolic acid levels in BCG [4]: decreased; decrease in total mycolic acid levels compared to untreated controls [5]: 43%; MIC (BCG): 6.25 µg/mL (≈ 26.6 µM); overexpression of hsp and b-subunit homologs [6]: no proteins consistent with these molecular weights or pI's were overexpressed; also recorded: neither protein was overexpressed

Q: Which “effect on ATP level versus untreated BCG” value [1, 7] does the source give for CO[C@H]1/C=C/O[C@@]2(C)Oc3c(C)c(O)c4c(O)c(c(/C=N/N5CCN(C)CC5)c(O)c4c3C2=O)NC(=O)/C(C)=C\C=C\[C@H](C)[C@H](O)[C@@H](C)[C@@H](O)[C@@H](C)[C@H](OC(C)=O)[C@@H]1C [RIF, rifampin] here?
A: Its value is “no appreciable difference”.

Q: Which “effect on ATP level versus untreated BCG” value [1, 7] does the source give for O=C(CC(=O)C(F)(F)F)c1cccs1 [TTFA, thenoyltrifluoroaceton] here?
A: The value was “only a moderate decrease”.

Q: And the “decrease in total mycolic acid levels compared to untreated controls” value [5]?
A: Its value is 46%.

Q: Which “potentiation of growth inhibition by ethanol” value (M. tuberculosis H37Rv) does the source give for [H]/N=C(/N)N[C@H]1[C@H](O)[C@@H](O)[C@H](O[C@@H]2O[C@@H](C)[C@](O)(C=O)[C@H]2O[C@@H]2O[C@@H](CO)[C@H](O)[C@@H](O)[C@@H]2NC)[C@@H](N/C(N)=N\[H])[C@@H]1O [STR, streptomycin] here?
A: The value was “No potentiation”.

Q: What about the “effect on ATP level versus untreated BCG” value [1, 7] of the same compound?
A: Its value is “no appreciable difference”.

Q: With C(=NC1CCCCC1)=NC1CCCCC1 [DCCD, dicyclohexylcarbodiimide] as the compound, how does the “effect on ATP level versus untreated BCG” value [1, 7] read?
A: Its value is “statistically significant decrease”.

Q: And the “decrease in ATP[M] level” value ([1]; BCG, 100 μg/ml, all timepoints (1, 3, 24 hours))?
A: The value was 95%.

Q: What about the “ATP[M] levels, single time-point and time-course experiments” value ([1]; BCG) of the same compound?
A: Its value is “decreased significantly”.

Q: And the “decrease in total mycolic acid levels compared to untreated controls” value [5]?
A: The value was 79%.
